Experiment [1] has as its system RPE-Neo or RPE-MYC or RPE-MYC expressing an EGFP-Histone 2B fusion protein. Briefly: Phenotypic screening assay (arrest in mitosis, change in DNA content, cell death; GE IN-Cell Analyzer 2000). The class given is cell-based. The note with it: Homo sapiens, compounds 20 nM to 20 μM, 24, 48 or 72 hours.
Experiment [2] has the same test system. As to the kind of experiment: MTT assays of cellular proliferation. Format: cell-based. The note with it: Homo sapiens, min. effective conc., read-out: Proliferative arrest (<50%).
[3] abbreviates: read-out: Min. Effective conc. for Polyploidy (≥10%).
Setting [4] is: min. effective conc., read-out: Cell Death (>30%).
Setting [5] is: min. effective conc., read-out: Mitotic Arrest (≥10%).

For the compound `CNC(=O)C1=C(O)c2cc(C)ccc2N(Cc2ccc(C)c(F)c2)C(=O)C1` [Example 136, 1-(3-fluoro-4-methylbenzyl)-5-hydroxy-N,7-dimethyl-2-oxo-2,3-dihydro-1H-benzo[b]azepine-4-carboxamide], the minimal effective concentration in experiment [1] (setting [3]), in experiment [1] (setting [4]), in experiment [1] (setting [5]) and in experiment [2] was 1 to 10 µM in each case.
With `CNC(=O)C1=C(O)c2ccccc2N(Cc2ccsc2)C(=O)C1` [Example 71, 5-hydroxy-N-methyl-2-oxo-1-(thiophen-3-ylmethyl)-2,3-dihydro-1H-benzo[b]azepine-4-carboxamide], the minimal effective concentration in experiment [1] (setting [3]), in experiment [1] (setting [4]), in experiment [1] (setting [5]) and in experiment [2] was 30 to 1000 µM in each case.
For the compound `CCOc1ccc2c(c1)N(Cc1ccc(C)c(F)c1)C(=O)CC(C(=O)NC)=C2O` [Example 128, 8-ethoxy-1-(3-fluoro-4-methylbenzyl)-5-hydroxy-N-methyl-2-oxo-2,3-dihydro-1H-benzo[b]azepine-4-carboxamide], the minimal effective concentration in experiment [1] (setting [3]), in experiment [1] (setting [4]), in experiment [1] (setting [5]) and in experiment [2] was 1 to 10 µM in each case.
On to `CNC(=O)C1=C(O)c2ccccc2N(Cc2ccc(C)c(Br)c2)C(=O)C1` [Example 120], for which the minimal effective concentration in experiment [1] (setting [3]), in experiment [1] (setting [4]), in experiment [1] (setting [5]) and in experiment [2] was 10 to 30 µM throughout.
As for `CNC(=O)C1=C(O)c2ccccc2N(Cc2cccc(OC)c2F)C(=O)C1` [Example 113, 1-(2-fluoro-3-methoxybenzyl)-5-hydroxy-N-methyl-2-oxo-2,3-dihydro-1H-benzo[b]azepine-4-carboxamide], the minimal effective concentration in experiment [1] (setting [3]), in experiment [1] (setting [4]), in experiment [1] (setting [5]) and in experiment [2] was 10 to 30 µM each time.
In the case of `CNC(=O)C1=C(O)c2ccccc2N(CCc2ccc(OC)cc2)C(=O)C1` [Example 96, 5-hydroxy-1-(4-methoxyphenethyl)-N-methyl-2-oxo-2,3-dihydro-1H-benzo[b]azepine-4-carboxamide], the minimal effective concentration in experiment [1] (setting [3]), in experiment [1] (setting [4]), in experiment [1] (setting [5]) and in experiment [2] was 30 to 1000 µM throughout.
Consider `CNC(=O)C1=C(O)c2ccccc2N(Cc2cccc(F)c2F)C(=O)C1` [Example 107, 1-(2,3-difluorobenzyl)-5-hydroxy-N-methyl-2-oxo-2,3-dihydro-1H-benzo[b]azepine-4-carboxamide], for which the minimal effective concentration in experiment [1] (setting [3]), in experiment [1] (setting [4]), in experiment [1] (setting [5]) and in experiment [2] was 30 to 1000 µM each time.
As for `CNC(=O)C1=C(O)c2ccc(OC)cc2N(Cc2ccc(C)c(F)c2)C(=O)C1` [Example 127, 1-(3-fluoro-4-methylbenzyl)-5-hydroxy-8-methoxy-N-methyl-2-oxo-2,3-dihydro-1H-benzo[b]azepine-4-carboxamide], the minimal effective concentration in experiment [1] (setting [3]), in experiment [1] (setting [4]), in experiment [1] (setting [5]) and in experiment [2] was 0.001 to 1 µM each time.
`CNC(=O)C1=C(O)c2ccccc2N(Cc2ccccc2OC)C(=O)C1` [Example 93, 5-hydroxy-1-(2-methoxybenzyl)-N-methyl-2-oxo-2,3-dihydro-1H-benzo[b]azepine-4-carboxamide]: the minimal effective concentration in experiment [1] (setting [3]), in experiment [1] (setting [4]), in experiment [1] (setting [5]) and in experiment [2] was 10 to 30 µM throughout.

The values above are taken from patent US20240270695A1, “COMPOUNDS, COMPOSITIONS AND METHODS OF TREATING DISORDERS” (Chengdu Anticancer Bioscience LTD, priority 2021, published 2024).
